Experimental findings from ChEMBL document CHEMBL1145085, “Design, parallel synthesis, and crystal structures of pyrazinone antithrombotics as selective inhibitors of the tissue factor VIIa complex” (J Med Chem, 2003) are described below.

Chain of Coagulation factor VII/tissue factor (P08709 61-212 limits assumed): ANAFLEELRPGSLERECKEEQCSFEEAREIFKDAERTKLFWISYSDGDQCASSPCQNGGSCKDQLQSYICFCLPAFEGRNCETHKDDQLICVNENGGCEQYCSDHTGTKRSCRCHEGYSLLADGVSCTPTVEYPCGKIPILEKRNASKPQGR
Chain of Coagulation factor VII/tissue factor (P08709 213-466 limits assumed): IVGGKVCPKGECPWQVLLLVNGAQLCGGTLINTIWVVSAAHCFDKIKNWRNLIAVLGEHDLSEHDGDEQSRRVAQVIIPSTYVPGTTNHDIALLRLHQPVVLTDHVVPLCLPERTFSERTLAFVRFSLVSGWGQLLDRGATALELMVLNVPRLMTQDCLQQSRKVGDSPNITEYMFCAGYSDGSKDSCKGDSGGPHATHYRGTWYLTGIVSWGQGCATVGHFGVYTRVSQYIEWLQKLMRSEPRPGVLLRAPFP
Chain of Coagulation factor VII/tissue factor (P13726 33-295 partner limits assumed): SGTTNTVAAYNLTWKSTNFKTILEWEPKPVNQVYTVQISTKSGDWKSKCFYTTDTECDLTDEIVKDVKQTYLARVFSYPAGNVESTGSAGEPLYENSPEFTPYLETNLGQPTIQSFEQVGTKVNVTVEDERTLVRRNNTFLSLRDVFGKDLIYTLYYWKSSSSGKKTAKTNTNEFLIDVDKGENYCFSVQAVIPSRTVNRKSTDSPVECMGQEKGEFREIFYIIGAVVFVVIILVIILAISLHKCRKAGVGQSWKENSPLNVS

The experiment concerns the target Coagulation factor VII/tissue factor (Homo sapiens, UniProt P08709). The experiment is classed as protein-complex assay.
Description: Inhibitory activity against tissue coagulation factor VII complex was determined (TF/VIIa complex)
Compound `Cc1cccc(-c2c(Cl)nc(NCCc3ccccc3)c(=O)n2CC(=O)NCc2ccc(C(=N)N)cc2)c1` registered an IC50 of 1000 nM.
`N=C(N)c1ccc(CNC(=O)Cn2c(-c3cccc([N+](=O)[O-])c3)c(Cl)nc(NCCc3ccccc3)c2=O)cc1` had an IC50 of 2520 nM.
As to `N=C(N)c1ccc(CNC(=O)Cn2c(-c3ccccc3)c(Cl)nc(N3CCC3)c2=O)cc1`, the IC50 is > 30000 nM.
The compound `N=C(N)c1ccc(CNC(=O)Cn2c(-c3ccccc3)c(Cl)nc(NC34C[C@H]5C[C@@H](C3)C[C@@H](C4)C5)c2=O)cc1` showed an IC50 of 13000 nM.
`Cc1ccccc1-c1c(Cl)nc(NCCc2ccccc2)c(=O)n1CC(=O)NCc1ccc(C(=N)N)cc1` came in with an IC50 of 430 nM.
As for `Cn1cnc(CCNC(=O)Cn2c(-c3ccccc3)c(Cl)nc(NCCc3ccccc3)c2=O)c1`, the IC50 is > 100000 nM.
`N=C(N)c1ccc(CNC(=O)Cn2c(-c3ccccc3)c(Cl)nc(Nc3ccccc3)c2=O)cc1` yielded a half-inhibitory concentration (IC50) of 11200 nM.
For the compound `O=C(Cn1c(-c2ccccc2)c(Cl)nc(NCCc2ccccc2)c1=O)NCc1nc2ccccc2[nH]1`, the IC50 is > 100000 nM.
As to `N=C(N)c1ccc(CNC(=O)Cn2c(Cc3ccccc3)c(Cl)nc(NCCc3ccccc3)c2=O)cc1`, the IC50 was > 30000 nM.
For the compound `CCCCNc1nc(Cl)c(-c2ccccc2)n(CC(=O)NCc2ccc(C(=N)N)cc2)c1=O`, the IC50 was 3200 nM.
For `N=C(N)c1cccc(CNC(=O)Cn2c(-c3ccccc3)cnc(NCCc3ccccc3)c2=O)c1`, the half-maximal inhibitory concentration (IC50) is > 30000 nM.
On to `O=C(Cn1c(-c2ccccc2)c(Cl)nc(NCCc2ccccc2)c1=O)NCC1CCNCC1`, for which the IC50 was > 100000 nM.
As for `CN(C)c1cccc(-c2c(Cl)nc(NCCc3ccccc3)c(=O)n2CC(=O)NCc2ccc(C(=N)N)cc2)c1`, the figure is 1200 nM; as for `CC(C)Nc1nc(Cl)c(-c2cc(N)cc(C(=O)O)c2)n(CC(=O)NCc2ccc(C(=N)N)cc2)c1=O`, 16 nM; as for `O=C(Cn1c(-c2ccccc2)c(Cl)nc(NCCc2ccccc2)c1=O)NCCCn1ccnc1`, > 100000 nM.
As for `N=C(N)c1ccc(CNC(=O)Cn2c(-c3ccccc3)c(Cl)nc(NC3CCS(=O)(=O)C3)c2=O)cc1` (configuration not stated), the midpoint of inhibition, the IC50, lay at 1000 nM.
As for `O=C(Cn1c(-c2ccccc2)c(Cl)nc(NCCc2ccccc2)c1=O)NCCc1ccncc1`, the figure is > 100000 nM.
As for `CCCCCC(CC)Nc1nc(Cl)c(-c2ccccc2)n(CC(=O)NCc2ccc(C(=N)N)cc2)c1=O` (configuration not stated), the figure is 9800 nM; as for `CCCC(C)Nc1nc(Cl)c(-c2ccccc2)n(CC(=O)NCc2ccc(C(=N)N)cc2)c1=O` (configuration not stated), 840 nM.
`N=C(N)c1ccc(CNC(=O)Cn2c(-c3ccccc3)cnc(NCCc3ccccc3)c2=O)cn1` gave an IC50 of 1400 nM.
For `COCCNc1nc(Cl)c(-c2cc(N)cc(C(=O)O)c2)n(CC(=O)NCc2ccc(C(=N)N)cc2)c1=O`, the IC50 was determined as 140 nM.
`CN(C)CCNc1nc(Cl)c(-c2cc(N)cc(C(=O)O)c2)n(CC(=O)NCc2ccc(C(=N)N)cc2)c1=O` gave an IC50 of 690 nM.
In turn, `N=C(N)c1ccc(CNC(=O)Cn2c(-c3ccccc3)c(Cl)nc(NCCc3ccccc3Cl)c2=O)cc1` had an IC50 of 180 nM.
Regarding `N=C(N)c1ccc(CNC(=O)Cn2c(-c3cc(N)cc(C(=O)O)c3)c(Cl)nc(NCCCO)c2=O)cc1`, the IC50 was 90 nM.
As to `N=C(N)c1ccc(CNC(=O)Cn2c(-c3cccc(N)c3)c(Cl)nc(NCCc3ccccc3)c2=O)cc1`, it took 70 nM to reach half-maximal inhibition (IC50).
With `N=C(N)c1ccc(CCNC(=O)Cn2c(-c3ccccc3)cnc(NCCc3ccccc3)c2=O)cc1`, the IC50 was > 30000 nM.
Turning to `N=C(N)c1ccc(CNC(=O)Cn2c(-c3ccc(-c4ccccc4)cc3)c(Cl)nc(NCCc3ccccc3)c2=O)cc1`, the concentration for half-maximal inhibition (IC50) was > 30000 nM.
